From patent US11071729B2, “1′,3′-disubstituted-4-phenyl-3,4,5,6-tetrahydro-2H,1′H-[1,4′]bipyridinyl-2′-ones” (Janssen Pharmaceuticals, Inc., priority 2007, dated 2021)

Biological target: human mGluR2 receptor (Homo sapiens (Human), UniProt Q14416)
Assay: [35S]GTPγS binding assay (PAM assay)
Type: biochemical
Conditions: membranes from CHO cells transfected with human mGluR2; in presence of glutamate at EC25 concentration; averages of duplicate values of 11-concentration response curves
Experimental: The [^35S]GTPγS binding assay is a functional membrane-based assay used to study G-protein coupled receptor (GPCR) function whereby incorporation of a non-hydrolysable form of GTP, [^35S]GTPγS (guanosine 5′-triphosphate, labelled with […] ^35S), is measured. The G-protein […] subunit catalyzes the exchange of guanosine 5′-diphosphate (GDP) by guanosine triphosphate (GTP) and on activation of the GPCR by an agonist, [^35S]GTPγS, becomes incorporated and cannot be cleaved to continue the exchange cycle (Harper (1998) Current Protocols in Pharmacology 2.6.1-10, John Wiley & Sons, Inc.). […] Here we describe the use of the [^35S]GTPγS binding assay using membranes from cells transfected with the human mGluR2 receptor and adapted from Schaffhauser et al ((2003) Molecular Pharmacology 4:798-810) for the detection of the positive allosteric modulation (PAM) properties of the compounds of this invention.
CHO-cells were cultured to pre-confluence and stimulated with 5 mM butyrate for 24 hours, prior to washing in PBS, and then collected by scraping in homogenisation buffer (50 mM Tris-HCl buffer, pH 7.4, 4° C.). Cell lysates were homogenized briefly (15 s) using an ultra-turrax homogenizer. The homogenate was centrifuged at 23 500×g for 10 minutes and the supernatant discarded. The pellet was resuspended in 5 mM Tris-HCl, pH 7.4 and centrifuged again (30 000×g, 20 min, 4° C.). The final pellet was resuspended in 50 mM HEPES, pH 7.4 and stored at −80° C. in appropriate aliquots before use. Protein concentration was determined by the Bradford method (Bio-Rad, USA) with bovine serum albumin as standard.
Measurement of mGluR2 positive allosteric modulatory activity of test compounds in membranes containing human mGluR2 was performed using frozen membranes that were thawed and briefly homogenized prior to pre-incubation in 96-well microplates (15 μg/assay well, 30 minutes, 30° C.) in assay buffer (50 mM HEPES pH 7.4, 100 mM NaCl, 3 mM MgCl2, 50 μM GDP, 10 μg/ml saponin,) with increasing concentrations of positive allosteric modulator (from 0.3 nM to 50 μM) and either a minimal pre-determined concentration of glutamate (PAM assay), or no added glutamate. For the PAM assay, membranes were pre-incubated with glutamate at EC25 concentration, i.e. a concentration that gives 25% of the maximal response glutamate, and is in accordance to published data (Pin et al. (1999) Eur. J. Pharmacol. 375:277-294). After addition of [^35S]GTPγS (0.1 nM, f.c.) to achieve a total reaction volume of 200 μl, microplates were shaken briefly and further incubated to allow [^35S]GTPγS incorporation on activation (30 minutes, 30° C.). The reaction was stopped by rapid vacuum filtration over glass-fibre filter plates (Unifilter 96-well GF/B filter plates, Perkin-Elmer, Downers Grove, USA) microplate using a 96-well plate cell harvester (Filtermate, Perkin-Elmer, USA), and then by washing three times with 300 μl of ice-cold wash buffer (Na2PO4.2H2O 10 mM, NaH2PO4.H2O 10 mM, pH=7.4). Filters were then air-dried, and 40 μl of liquid scintillation cocktail (Microscint-O) was added to each well, and membrane-bound [^35S]GTPγS was measured in a 96-well scintillation plate reader (Top-Count, Perkin-Elmer, USA). Non-specific [^35S]GTPγS binding is determined in the presence of cold 10 μM GTP.

human mGluR2 receptor, sequence (Q14416 19-872): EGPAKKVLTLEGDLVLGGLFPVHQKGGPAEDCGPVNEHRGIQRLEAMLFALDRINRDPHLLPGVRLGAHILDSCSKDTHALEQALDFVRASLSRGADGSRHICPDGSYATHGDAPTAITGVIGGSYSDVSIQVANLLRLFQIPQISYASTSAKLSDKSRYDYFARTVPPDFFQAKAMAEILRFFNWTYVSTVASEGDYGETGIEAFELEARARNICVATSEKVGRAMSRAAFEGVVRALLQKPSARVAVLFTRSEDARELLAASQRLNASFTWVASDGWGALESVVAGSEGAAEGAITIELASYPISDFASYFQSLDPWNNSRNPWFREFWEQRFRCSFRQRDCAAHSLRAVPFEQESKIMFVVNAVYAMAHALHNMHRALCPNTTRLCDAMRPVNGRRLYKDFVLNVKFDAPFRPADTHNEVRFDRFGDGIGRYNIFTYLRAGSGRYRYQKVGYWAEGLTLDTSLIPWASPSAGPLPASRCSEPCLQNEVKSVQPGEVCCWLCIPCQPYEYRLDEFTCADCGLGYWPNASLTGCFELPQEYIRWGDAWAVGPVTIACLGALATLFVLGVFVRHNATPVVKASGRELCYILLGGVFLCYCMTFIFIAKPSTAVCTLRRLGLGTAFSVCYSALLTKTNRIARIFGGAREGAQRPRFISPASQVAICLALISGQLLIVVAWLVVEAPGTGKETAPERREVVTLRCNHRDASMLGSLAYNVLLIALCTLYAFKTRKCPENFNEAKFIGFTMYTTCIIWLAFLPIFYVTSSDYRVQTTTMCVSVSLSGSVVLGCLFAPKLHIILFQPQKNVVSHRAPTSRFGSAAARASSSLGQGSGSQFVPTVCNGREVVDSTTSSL

GTPgS - hR2 PAM pEC50 | SMILES
6.88 | O=c1c(Cl)c(N2CCC(c3ccccc3)CC2)ccn1CCC1CC1 [Compound 10]
6.25 | O=c1c(Cl)c(N2CCC(CF)(c3ccccc3)CC2)ccn1CC1CC1 [Compound 21, 3′-Chloro-1′-cyclopropylmethyl-4-fluoromethyl-4-phenyl-3,4,5,6-tetrahydro-2H,1′H-[1,4′]bipyridinyl-2′-one]
6.88 | CCCCn1ccc(N2CCC(c3ccc(C(C)(C)O)cc3F)CC2)c(Cl)c1=O [Compound 29, 1′-Butyl-3′-chloro-4-[2-fluoro-4-(1-hydroxy-1-methyl-ethyl)-phenyl]-3,4,5,6-tetrahydro-2H,1′H-[1,4′]bipyridinyl-2′-one]
6.91 | CC(C)CCn1ccc(N2CCC(c3ccc(F)cc3F)CC2)c(Cl)c1=O [Compound 24]
7.11 | CCCCCn1ccc(N2CCC(c3ccccc3)CC2)c(Cl)c1=O [Compound 11]
6.90 | O=c1c(Cl)c(N2CCC(c3ccccc3)CC2)ccn1Cc1ccc(OC(F)(F)F)cc1 [Compound 5, 3′-Chloro-4-phenyl-1′-(4-trifluoromethoxybenzyl)-3,4,5,6-tetrahydro-2H,1′H-[1,4′]bipyridinyl-2′-one]
6.91 | O=c1c(Cl)c(N2CCC(OCCF)(c3ccccc3)CC2)ccn1CC1CC1 [Compound 20, 3′-Chloro-1′-cyclopropylmethyl-4-(2-fluoro-ethoxy)-4-phenyl-3,4,5,6-tetrahydro-2H,1′H-[1,4′]bipyridinyl-2′-one]
6.88 | O=c1c(Br)c(N2CCC(c3ccccc3)CC2)ccn1CC1CC1 [Compound 3, 3′-Bromo-1′-cyclopropylmethyl-4-phenyl-3,4,5,6-tetrahydro-2H,1′H-[1,4′]bipyridinyl-2′-one]
6.34 | N#CC1(c2ccccc2)CCN(c2ccn(CC3CC3)c(=O)c2Cl)CC1 [Compound 6, 3′-Chloro-1′-cyclopropylmethyl-2′-oxo-4-phenyl-3,4,5,6,1′,2′-hexahydro-2H-[1,4′]bipyridinyl-4-carbonitrile]
6.04 | O=c1c(C2CC2)c(N2CCC(c3ccccc3)CC2)ccn1CC1CC1 [Compound 8, 3′-Cyclopropyl-1′-cyclopropylmethyl-4-phenyl-3,4,5,6-tetrahydro-2H,1′H-[1,4′]bipyridinyl-2′-one]
6.46 | CCCCn1ccc(N2CCC(c3ccc(C(C)(C)O)cc3)CC2)c(Cl)c1=O [Compound 27]
6.64 | O=c1c(Cl)c(N2CCC(c3ccc(N4CCOCC4)cc3)CC2)ccn1CC1CC1 [Compound 13]
6.45 | O=c1c(C(F)(F)F)c(N2CCC(c3ccccc3)CC2)ccn1CC1CC1 [Compound 4, 1′-Cyclopropylmethyl-4-phenyl-3′-trifluoromethyl-3,4,5,6-tetrahydro-2H,1′H-[1,4′]bipyridinyl-2′-one]
6.57 | O=c1c(Cl)c(N2CCC(F)(c3ccccc3)CC2)ccn1CC1CC1 [Compound 17]
7.06 | CCCCn1ccc(N2CCC(c3ccccc3C(C)(C)O)CC2)c(Cl)c1=O [Compound 28, 1′-Butyl-3′-chloro-4-[2-(1-hydroxy-1-methyl-ethyl)-phenyl]-3,4,5,6-tetrahydro-2H,1′H-[1,4′]bipyridinyl-2′-one]
7.03 | O=c1c(Cl)c(N2CCC(c3ccccc3F)CC2)ccn1CC1CC1 [Compound 12]
6.71 | CC(C)Cn1ccc(N2CCC(c3ccccc3)CC2)c(Cl)c1=O [Compound 19]
6.92 | O=c1c(Cl)c(N2CCC(c3ccc(F)cc3F)CC2)ccn1CC1CC1 [Compound 14]
6.05 | CCCCn1ccc(N2CCC(CO)(c3ccccc3)CC2)c(Cl)c1=O [Compound 22, 1′-Butyl-3′-chloro-4-hydroxymethyl-4-phenyl-3,4,5,6-tetrahydro-2H,1′H-[1,4′]bipyridinyl-2′-one]
6.58 | CC(C)CCn1ccc(N2CCC(F)(c3ccccc3)CC2)c(Cl)c1=O [Compound 23]
7.12 | O=c1c(Cl)c(N2CCC(c3cccc(C(F)(F)F)c3)CC2)ccn1CC1CC1 [Compound 16]
6.57 | CC(C)(O)c1ccc(C2CCN(c3ccn(CC4CC4)c(=O)c3Cl)CC2)cc1 [Compound 9, 3′-Chloro-1′-cyclopropylmethyl-4-[4-(1-hydroxy-1-methyl-ethyl)-phenyl]-3,4,5,6-tetrahydro-2H,1′H-[1,4′]bipyridinyl-2′-one]
6.53 | O=c1c(Cl)c(N2CCC(c3ccccc3)CC2)ccn1CC1CC1 [Compound 1, 3′-Chloro-1′-cyclopropylmethyl-4-phenyl-3,4,5,6-tetrahydro-2H,1′H-[1,4′]bipyridinyl-2′-one]
6.41 | O=c1c(Cl)c(N2CCC(F)(c3ccccc3)CC2)ccn1CCC1CC1 [Compound 26]
6.83 | CCCCn1ccc(N2CCC(c3ccc(F)cc3F)CC2)c(Cl)c1=O [Compound 25]
7.20 | CC(C)CCn1ccc(N2CCC(c3ccccc3)CC2)c(Cl)c1=O [Compound 18]

SMILES | GTPgS - hR2 PAM pEC50
O=c1c(Cl)c(N2CCC(c3ccccc3Cl)CC2)ccn1CC1CC1 [Compound 15] | 7.00

Same assay, conditions: membranes from CHO cells transfected with human mGluR2; in presence of glutamate at EC25 concentration; averages of duplicate values of 11-concentration response curves; read-out: GTPgS - hR2 PAM pEC50 (converted)

EC50 [nM] | SMILES
240 | CCCCn1ccc(N2CCC(F)(c3ccccc3)CC2)c(Cl)c1=O [Compound 7]
